From BindingDB's records for doi:10.1016/s0960-894x(01)00758-2 (University of St. Andrews, 2002)

Assay: Tested for binding affinity against kynureninase enzyme from bacterial cells

Question: For `NC(CC(O)c1cccc(O)c1)C(=O)O` (stereo unspecified) [2-amino-4-[3'-hydroxyphenyl]-4-hydroxybutanoic acid], which Ki is on record?
Answer: The Ki was 10 µM.
